This is an account of results in ChEMBL document CHEMBL3822364, “Synthesis, characterization and antimicrobial activity of novel Schiff base tethered boronate esters of 1,2-O-isopropylidene-α-d-xylofuranose” (2016).

As a reminder, the MIC is the lowest concentration found to suppress growth.

In brackets after ≈: the same amount, converted by molar mass.

Assay [1] concerns Streptococcus mutans. The experiment in a line: Antibacterial activity against Streptococcus mutans MTCC 497 assessed as zone of inhibition at 100 ug/well measured after 24 hrs by agar well diffusion method. It is filed as functional. The settings on record: MTCC 497, 24 h, read-out: DIZ. For orientation: A growth-free zone around the sample is the usual read-out of agar diffusion tests.

The test system of assay [2] is Micrococcus luteus. Nature of the assay: Antibacterial activity against Micrococcus luteus MTCC 106 assessed as zone of inhibition at 100 ug/well measured after 24 hrs by agar well diffusion method. It is filed as functional. The following applies: MTCC 106, 24 h, read-out: DIZ.
Assay [3] has as its system Staphylococcus aureus. The experiment in a line: Antibacterial activity against Staphylococcus aureus MTCC 3160 assessed as zone of inhibition at 100 ug/well measured after 24 hrs by agar well diffusion method. It is filed as functional. The following applies: MTCC 3160, 24 h, read-out: DIZ.
Assay [4] has as its system Salmonella paratyphi. The experiment in a line: Antibacterial activity against Salmonella paratyphi assessed as zone of inhibition at 100 ug/well measured after 24 hrs by agar well diffusion method. The settings on record: Salmonella enterica, read-out: DIZ. It is filed as functional, Salmonella enterica subsp. enterica serovar Paratyphi A.
In assay [5] the test system is Salmonella typhi. Nature of the assay: Antibacterial activity against Salmonella typhi assessed as zone of inhibition at 100 ug/well measured after 24 hrs by agar well diffusion method. It is filed as functional, Salmonella enterica subsp. enterica serovar Typhi. The following applies: Salmonella enterica, read-out: DIZ.
Assay [6] deals with Klebsiella pneumoniae. The experiment in a line: Antibacterial activity against Klebsiella pneumoniae MTCC 3384 assessed as zone of inhibition at 100 ug/well measured after 24 hrs by agar well diffusion method. In kind it is functional. The settings on record: MTCC 3384, 24 h, read-out: DIZ.
The test system of assay [7] is Candida albicans. Nature of the assay: Antifungal activity against Candida albicans MTCC 3017 assessed as zone of inhibition at 100 ug/well measured after 48 hrs by agar well diffusion method. In kind it is functional. The following applies: MTCC 3017, 48 h, read-out: DIZ.
For assay [8], the system named is Aspergillus fumigatus. The experiment in a line: Antifungal activity against Aspergillus fumigatus MTCC 343 assessed as zone of inhibition at 100 ug/well measured after 48 hrs by agar well diffusion method. The settings on record: MTCC 343, 48 h, read-out: DIZ. In kind it is functional.
Assay [9] deals with Streptococcus mutans. The experiment in a line: Antibacterial activity against Streptococcus mutans MTCC 497 measured after 24 hrs by NCCL protocol based broth dilution method. It is filed as functional. The following applies: MTCC 497, 24 h. In general terms: Broth dilution looks for growth in wells or tubes with falling amounts of substance.
The subject of assay [10] is Micrococcus luteus. Nature of the assay: Antibacterial activity against Micrococcus luteus MTCC 106 measured after 24 hrs by NCCL protocol based broth dilution method. It is filed as functional. The following applies: MTCC 106, 24 h.
The test system of assay [11] is Staphylococcus aureus. Nature of the assay: Antibacterial activity against Staphylococcus aureus MTCC 3160 measured after 24 hrs by NCCL protocol based broth dilution method. In kind it is functional. The following applies: MTCC 3160, 24 h.
The subject of assay [12] is Salmonella paratyphi. Nature of the assay: Antibacterial activity against Salmonella paratyphi measured after 24 hrs by NCCL protocol based broth dilution method. In kind it is functional, Salmonella enterica subsp. enterica serovar Paratyphi A. The settings on record: Salmonella enterica.
The test system of assay [13] is Salmonella typhi. Nature of the assay: Antibacterial activity against Salmonella typhi measured after 24 hrs by NCCL protocol based broth dilution method. It is filed as functional, Salmonella enterica subsp. enterica serovar Typhi. The following applies: Salmonella enterica.
The subject of assay [14] is Klebsiella pneumoniae. The experiment in a line: Antibacterial activity against Klebsiella pneumoniae MTCC 3384 measured after 24 hrs by NCCL protocol based broth dilution method. In kind it is functional. The settings on record: MTCC 3384, 24 h.
For assay [15], the system named is Candida albicans. The experiment in a line: Antifungal activity against Candida albicans MTCC 3017 measured after 48 hrs by NCCL protocol based broth dilution method. In kind it is functional. The settings on record: MTCC 3017, 48 h.
In assay [16] the test system is Aspergillus fumigatus. The experiment in a line: Antifungal activity against Aspergillus fumigatus MTCC 343 measured after 48 hrs by NCCL protocol based broth dilution method. In kind it is functional. The following applies: MTCC 343, 48 h.

Regarding `Cc1ccc(/N=C/c2cccc(B(O)O)c2)cc1`, the zone of inhibition at 100 µg/disc in assay [1] was 9 mm; in assay [2] it was 0 mm; in [3] it was 8 mm; in [4] it was 0 mm; in [5], 8 mm; in assay [6], 0 mm. For the same compound, the zone of inhibition at 100 µg/disc in [7] and in assay [8] was 0 mm in each case. The MIC was found to be 250 µg/mL (≈ 1050 µM) in assay [9]; 500 µg/mL (≈ 2090 µM) in assay [10]; 500 µg/mL (≈ 2090 µM) in assay [11]; 500 µg/mL (≈ 2090 µM) in assay [12]; 500 µg/mL (≈ 2090 µM) in assay [13]; 500 µg/mL (≈ 2090 µM) in assay [14]. Also, the minimum inhibitory concentration (MIC) in assay [15] and in assay [16] was 500 µg/mL (≈ 2090 µM) each time.

Take `CCOc1cccc(/C=N/c2cccc(B3OC[C@H]4O[C@@H]5OC(C)(C)O[C@@H]5[C@H]4O3)c2)c1O`: the zone of inhibition at 100 µg/disc in assay [1] came out at 16 mm; in assay [2], 15 mm; in assay [3] it was 0 mm; in [4], 14 mm; in assay [5] it was 24 mm; in [6], 12 mm. Moreover, the zone of inhibition at 100 µg/disc in assay [7] worked out at 18 mm; in assay [8], 21 mm. The minimum inhibitory concentration (MIC) in [9] was found to be 125 µg/mL (≈ 285 µM); in assay [10], 125 µg/mL (≈ 285 µM); in [11], 250 µg/mL (≈ 569 µM); in [12], 250 µg/mL (≈ 569 µM); in assay [13], 31.2 µg/mL (≈ 71.1 µM); in [14], 125 µg/mL (≈ 285 µM). Further, the minimum inhibitory concentration (MIC) in assay [15] and in [16] was 62.5 µg/mL (≈ 142 µM) in each case.

Take `COc1ccc(/N=C/c2ccc(B3OC[C@H]4O[C@@H]5OC(C)(C)O[C@@H]5[C@H]4O3)cc2)cc1`: the zone of inhibition at 100 µg/disc in [1] stood at 12 mm; in assay [2], 11 mm; in [3], 11 mm; in assay [4], 13 mm; in [5], 19 mm; in assay [6], 18 mm. The values for the zone of inhibition at 100 µg/disc in assay [7] and in [8] were 17 mm and 0 mm, respectively. Further, the minimum inhibitory concentration (MIC) is 250 µg/mL (≈ 611 µM) in assay [9]; 250 µg/mL (≈ 611 µM) in assay [10]; 500 µg/mL (≈ 1220 µM) in [11]; 250 µg/mL (≈ 611 µM) in [12]; 125 µg/mL (≈ 305 µM) in [13]; 125 µg/mL (≈ 305 µM) in [14]. For the same compound, the minimum inhibitory concentration (MIC) in assay [15] was determined as 125 µg/mL (≈ 305 µM); in [16], 500 µg/mL (≈ 1220 µM).

As for `Cc1ccc(/N=C/c2cccc(B3OC[C@H]4O[C@@H]5OC(C)(C)O[C@@H]5[C@H]4O3)c2)cc1`, the zone of inhibition at 100 µg/disc amounted to 13 mm in assay [1]; 12 mm in assay [2]; 13 mm in [3]; 12 mm in assay [4]; 20 mm in [5]; 20 mm in assay [6]. Besides, the zone of inhibition at 100 µg/disc in [7] turned out to be 17 mm; in assay [8] it was 14 mm. In addition, the MIC in [9] is 250 µg/mL (≈ 636 µM); in assay [10] it was 250 µg/mL (≈ 636 µM); in assay [11], 125 µg/mL (≈ 318 µM); in assay [12], 500 µg/mL (≈ 1270 µM); in assay [13] it was 125 µg/mL (≈ 318 µM); in assay [14] it was 125 µg/mL (≈ 318 µM). Also, the figures for the minimum inhibitory concentration (MIC) in assay [15] and in assay [16] were 250 µg/mL (≈ 636 µM) and 125 µg/mL (≈ 318 µM), respectively.

For `CC1(C)O[C@H]2O[C@@H]3COB(c4cccc(/N=C/c5ccccc5O)c4)O[C@@H]3[C@H]2O1`, the zone of inhibition at 100 µg/disc turned out to be 20 mm in [1]; 22 mm in assay [2]; 13 mm in [3]; 13 mm in assay [4]; 22 mm in [5]; 16 mm in assay [6]. Moreover, the zone of inhibition at 100 µg/disc was found to be 14 mm in [7] and 0 mm in [8]. The minimum inhibitory concentration (MIC) is 62.5 µg/mL (≈ 158 µM) in [9]; 62.5 µg/mL (≈ 158 µM) in assay [10]; 250 µg/mL (≈ 633 µM) in assay [11]; 250 µg/mL (≈ 633 µM) in [12]; 62.5 µg/mL (≈ 158 µM) in assay [13]; 125 µg/mL (≈ 316 µM) in [14]. The MIC in [15] worked out at 125 µg/mL (≈ 316 µM); in assay [16], 500 µg/mL (≈ 1270 µM).
